Measurements from patent US20260098008A1, “COVALENT, CHEMOGENETIC ACTIVATORS FOR K2P POTASSIUM CHANNELS AND USES THEREOF” (THE REGENTS OF THE UNIVERSITY OF CALIFORNIA, priority 2022, published 2026).
Positions count from the first letter of the chain named.

Experiments:
[1] = target: T1, TREK-1^CG* (K2P2.1 (TREK-1) S131C) (Mus musculus, UniProt P97438, S146C); assay: TEVC in Xenopus oocytes; type: cell-based; conditions: for Fold-activation (I activator/I control) / Reversibility of activation on washout: 20 μM, Xenopus oocytes; for Fold-activation (I activator/I control): 0 mV; for TREK-1 GC activity class: Fold-activation at 20 uM in oocytes
T1 construct: expressed in transfected cells; host or cells: Xenopus laevis oocytes injected with mRNA
T1 sequence (P97438 1-411 isoform P97438-2 S131C): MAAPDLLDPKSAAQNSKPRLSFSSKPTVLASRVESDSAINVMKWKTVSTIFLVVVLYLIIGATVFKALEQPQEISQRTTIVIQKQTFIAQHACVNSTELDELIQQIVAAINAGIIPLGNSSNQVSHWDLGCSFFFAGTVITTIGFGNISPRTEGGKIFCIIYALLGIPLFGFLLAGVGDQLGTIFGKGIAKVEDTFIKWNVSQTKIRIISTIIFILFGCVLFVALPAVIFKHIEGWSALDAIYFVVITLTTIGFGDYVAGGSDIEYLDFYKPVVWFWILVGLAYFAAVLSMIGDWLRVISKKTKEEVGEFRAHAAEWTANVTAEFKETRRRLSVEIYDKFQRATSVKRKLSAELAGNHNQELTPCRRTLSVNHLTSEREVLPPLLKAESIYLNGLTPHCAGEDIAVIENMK
Excerpt: (§1) Mouse K2P2.1 (TREK-1) (Genbank accession number: NP_034737.2), mouse K2P10.1 (TREK-2) (NM_001316665.1), mouse K2P4.1 (TRAAK) (NM_008431.3), human K2P4.1 (TRAAK) (NM_033310.2) and mouse K2P18.1(TRESK) (NM_207261.3) were used for this study. Point mutations were introduced by site-directed mutagenesis using custom primers and confirmed by sequencing before use. For studies using Xenopus oocytes, K2P channels were subcloned into a previously reported pGEMHE/pMO vector (46). For expression in HEK293 cells, mouse K2P2.1 (TREK-1) and mutants were expressed from a previously described pIRES2-EGFP vector in HEK293 cells (46,47). K2P2.1 (TREK-1) tandems were constructed by connecting the open reading frames for the individual subunits with a linker encoding the […] (SEQ ID NO: 19) sequence. Tandems used for HEK293 cells included an N-terminal HA tag ([…] (SEQ ID NO: 20)) on the first subunit.
(§2) Xenopus laevis oocytes were harvested according to UCSF IACUC Protocol AN129690 and digested using collagenase (Worthington Biochemical Corporation, #LS004183, 0.8-1.0 mg/mL) in Ca^21-free ND96 (96 mM NaCl, 2 mM KCl, 3.8 mM MgCl2, 5 mM HEPES pH 7.4) immediately post-harvest, as previously reported (31,33). Oocytes were maintained at 18° C. in ND96 (96 mM NaCl, 2 mM KCl, 1.8 mM CaCl2, 2 mM MgCl2, 5 mM HEPES pH 7.4) supplemented with antibiotics (100 units mL^−1 penicillin, 100 μg mL^−1 streptomycin, 50 μg mL^−1 gentimycin) and used for experiments within one week of harvest.
(§3) Defolliculated stage V-VI oocytes were microinjected with 0.5-36 ng mRNA and currents were recorded within 16-48 h hours of injection.
(§4) For recordings, oocytes were impaled with borosilicate recording microelectrodes (0.4-2.0 MΩ resistance) backfilled with 3 M KCl and were subjected to constant perfusion of ND96 at a rate of 3 ml min^−1. Recording solutions containing K2P activators were prepared immediately prior to use from DMSO stocks (20-100 mM), with final DMSO concentrations of 0.1%. Currents were evoked from a −80 mV holding potential followed by a 300 ms ramp from −150 mV to +50 mV. Data were recorded using a GeneClamp 500B amplifier (MDS Analytical Technologies) controlled by pCLAMP8 software (Molecular Devices), and digitized at 1 kHz using Digidata 1332 Å digitizer (MDS Analytical Technologies). For each recording, control solution (ND96) was perfused over a single oocyte until current was stable before switching to solutions containing the test compounds at various concentrations. Representative traces and dose response plots were generated in GraphPad Prism 9.

K2P2.1 (TREK-1) = target: T2, K2P2.1 (TREK-1) (Mus musculus, UniProt P97438); assay: Two-electrode voltage clamp (TEVC) in Xenopus oocytes; type: cell-based; conditions: for TREK-1 activity class: Fold-activation at 20 uM in oocytes; for TREK-1 fold-activation: 20 uM, oocytes expressing TREK1
T2 construct: expressed in transfected cells; host or cells: Xenopus laevis oocytes injected with mRNA (pGEMHE/pMO vector)
T2 sequence (P97438 1-411 isoform P97438-2): T1 sequence (P97438 1-411 isoform P97438-2 S131C) with C131S
Excerpt: as §1, §2, §3, §4

| Compound | TREK-1 activity class (K2P2.1 (TREK-1)) | TREK-1 fold-activation (K2P2.1 (TREK-1)) [fold] | other results |
| --- | --- | --- | --- |
| CC1=CC(=O)N(c2ccc(C(=O)NCc3ccc(Cl)cc3Cl)cc2)C1=O [CAT335a] | – | – | Fold-activation (I activator/I control) [1]: 7.4±0.7 fold; Reversibility of activation on washout [1]: irreversibly activate |
| CC1=C(C)C(=O)N(c2ccc(C(=O)NCc3ccc(Cl)cc3Cl)cc2)C1=O [CAT335b] | – | – | Fold-activation (I activator/I control) [1]: 4.9±0.6 fold; Reversibility of activation on washout [1]: partially reversible with washout; Reversibility of activation after extended incubation ([1]; 1 hour incubation, washout with buffer): remained reversible |
| O=C(NCc1ccc(Cl)cc1Cl)c1ccc(N2C(=O)CCC2=O)cc1 [CAT335c] | – | – | Fold-activation (I activator/I control) [1]: 5.0 ± 0.4 fold; Reversibility of activation on washout [1]: reversible; Fold-activation (I activator/I control) (K2P2.1 (TREK-1); 20 μM, currents at 0 mV, Xenopus oocytes): 2.09 ± 0.14 fold |
| C#CCNC(=O)CC(=C)C(=O)Nc1ccc(C(=O)NCc2ccc(Cl)cc2Cl)cc1 [Entry 5] | +++ (>5 fold) | 7.0 | – |
| C#CCN(C(=O)C=C)c1ccc(C(=O)NCc2ccc(Cl)cc2Cl)cc1 [Entry 9] | – | 1.0 | – |
| C=CS(=O)(=O)Nc1ccc(C(=O)NCc2ccc(Cl)cc2Cl)cc1 [Entry 11] | – | 1.3 | – |
| C=C1CC(=O)N(c2ccc(C(=O)NCc3ccc(Cl)cc3Cl)cc2)C1=O [Entry 17] | + (1.5-2.5 fold) | – | TREK-1 GC activity class [1]: ++ (2.5-5 fold) |
| C#CCNC(=O)CCCC1=CC(=O)N(c2ccc(C(=O)NCc3ccc(Cl)cc3Cl)cc2)C1=O [Entry 18] | – | – | TREK-1 GC activity class [1]: ++ (2.5-5 fold) |
| CCOC(=O)CCCC1=CC(=O)N(c2ccc(C(=O)NCc3ccc(Cl)cc3Cl)cc2)C1=O [Entry 19] | – | – | TREK-1 GC activity class [1]: ++ (2.5-5 fold) |
| O=C(NCc1ccc(Cl)cc1Cl)c1cccc(CB(O)O)c1 [Entry 23] | – | 1.0 | – |
| O=C(NCc1ccc(Cl)cc1Cl)c1cccc(B(O)O)c1 [Entry 24] | + (1.5-2.5 fold) | 1.3 | – |
| O=C(NCc1ccc(Cl)cc1Cl)c1ccc(CB(O)O)cc1 [Entry 25] | + (1.5-2.5 fold) | 1.5 | – |
| O=C(NCc1ccc(Cl)cc1Cl)c1ccc(NCC2CO2)cc1 (stereo not shown) [Entry 27] | ++ (2.5-5 fold) | 2.5 | – |
| O=C(NCc1ccc(Cl)cc1Cl)c1ccc(NC(=O)C(F)(F)F)cc1 [Entry 28] | ++ (2.5-5 fold) | 3.3 | – |
| CC(NC(=O)c1ccc(NC(N)=O)cc1)c1ccc(Cl)cc1Cl (stereo not shown) [Entry 31] | – | 1.3 | – |
| CS(=O)(=O)Nc1cccc(C(=O)NCc2ccc(Cl)cc2Cl)c1 [Entry 33] | ++ (2.5-5 fold) | 2.2 | – |
| CC(NC(=O)c1ccc(NC(=O)NC(=O)C(Cl)(Cl)Cl)cc1)c1ccc(Cl)cc1Cl (stereo not shown) [Entry 34] | – | 1.2 | – |
| CNS(=O)(=O)c1ccc(C(=O)NCc2ccc(Cl)c(Cl)c2)cc1 [Entry 37] | + (1.5-2.5 fold) | 1.5 | – |
| CS(=O)(=O)Nc1ccc(C(=O)NCc2ccc(Cl)c(Cl)c2)cc1 [Entry 38] | +++ (>5 fold) | 4.8 | – |
| CS(=O)(=O)Nc1ccc(C(=O)NCc2ccc(Cl)c(F)c2)cc1 [Entry 39] | + (1.5-2.5 fold) | 1.5 | – |
| Cc1cc(Cl)cc(Cl)c1CNC(=O)c1ccc(NS(C)(=O)=O)cc1 [Entry 40] | – | 1.1 | – |
| CS(=O)(=O)Nc1ncc(C(=O)NCc2ccc(Cl)cc2Cl)cn1 [Entry 42] | + (1.5-2.5 fold) | 1.4 | – |
| O=C(COCCOCCNC(=S)Nc1ccc2c(c1)C(=O)OC21c2ccc(O)cc2Oc2cc(O)ccc21)Nc1ccc(C(=O)NCc2ccc(Cl)cc2Cl)cc1 [Entry 46] | +++ (>5 fold) | 4 | – |
| O=C(NCc1ccc(Cl)cc1Cl)c1ccc(N2CCS2(=O)=O)cc1 [Entry 47] | – | – | TREK-1 GC activity class [1]: + (1.5-2.5 fold) |

Now from value to compound, other results behind:

| TREK-1 activity class (K2P2.1 (TREK-1)) | TREK-1 fold-activation (K2P2.1 (TREK-1)) [fold] | Compound | other results |
| --- | --- | --- | --- |
| +++ (>5 fold) | – | C=CC(=O)Nc1ccc(C(=O)NCc2ccc(Cl)cc2Cl)cc1 [Entry 1] | TREK-1 GC activity class [1]: +++ (>5 fold) |
| +++ (>5 fold) | – | C#CCNC(=O)CCC(=C)C(=O)Nc1ccc(C(=O)NCc2ccc(Cl)cc2Cl)cc1 [Entry 2] | TREK-1 GC activity class [1]: +++ (>5 fold) |
| ++ (2.5-5 fold) | – | C=C(CCC(=O)O)C(=O)Nc1ccc(C(=O)NCc2ccc(Cl)cc2Cl)cc1 [Entry 3] | TREK-1 GC activity class [1]: ++ (2.5-5 fold) |
| – | 1.2 | C/C=C/C(=O)Nc1ccc(C(=O)NCc2ccc(Cl)cc2Cl)cc1 [Entry 4] | – |
| + (1.5-2.5 fold) | 1.7 to 2.5 | C=C(CC(=O)O)C(=O)Nc1ccc(C(=O)NCc2ccc(Cl)cc2Cl)cc1 [Entry 6] | – |
| – | 1.0 | O=C(/C=C/C(F)(F)F)Nc1ccc(C(=O)NCc2ccc(Cl)cc2Cl)cc1 [Entry 7] | – |
| ++ (2.5-5 fold) | 3.6 | N#CCC(=O)Nc1ccc(C(=O)NCc2ccc(Cl)cc2Cl)cc1 [Entry 8] | – |
| – | 1.2 | C=CC(=O)Nc1cccc(C(=O)NCc2ccc(Cl)cc2Cl)c1 [Entry 10] | – |
| + (1.5-2.5 fold) | 1.6 | CC1(C)OB(Cc2ccc(C(=O)NCc3ccc(Cl)cc3Cl)cc2)OC1(C)C [Entry 26] | – |
| – | 1.0 | CN(Cc1ccc(Cl)cc1Cl)C(=O)c1ccc(NS(C)(=O)=O)cc1 [Entry 30] | – |
| – | 1.2 | CC(NC(=O)c1ccc(NS(C)(=O)=O)cc1)c1ccc(Cl)cc1Cl (stereo not shown) [Entry 32] | – |
| +++ (>5 fold) | 6.4 | NC(=O)Nc1ccc(C(=O)NCc2ccc(Cl)cc2Cl)cc1 [Entry 35] | – |
| ++ (2.5-5 fold) | 3 | CNS(=O)(=O)c1ccc(C(=O)NCc2ccc(Cl)cc2Cl)cc1 [Entry 36] | – |
| ++ (2.5-5 fold) | 3.3 | CS(=O)(=O)Nc1ccc(C(=O)NCc2ccc(Br)cc2Cl)cc1 [Entry 41] | – |
| + (1.5-2.5 fold) | 1.6 | CS(=O)(=O)Nc1ccc2c(c1)OCCN(Cc1ccc(Cl)cc1Cl)C2=O [Entry 43] | – |
| – | 1.0 | CS(=O)(=O)Nc1ccc2c(c1)CCCN(Cc1ccc(Cl)cc1Cl)C2=O [Entry 44] | – |
| – | 1.1 | CS(=O)(=O)Nc1ccc2c(c1)CCN(Cc1ccc(Cl)cc1Cl)C2=O [Entry 45] | – |
| + (1.5-2.5 fold) | – | O=C(NCc1ccc(Cl)cc1Cl)c1ccc(C(=O)N2CCS2(=O)=O)cc1 [Entry 48] | TREK-1 GC activity class [1]: + (1.5-2.5 fold) |
